Experimental data from ChEMBL document CHEMBL2074362, “Lithocholic acid decreases expression of bile salt export pump through farnesoid X receptor antagonist activity” (J Biol Chem, 2002).

Target: Bile salt export pump (Homo sapiens, UniProt O95342)
Assay: TP_TRANSPORTER: Taq-Man PCR in vitro, primary hepatocytes
Type: functional, cell-based, Hepatocyte

Sequence of Bile salt export pump (O95342 whole entry): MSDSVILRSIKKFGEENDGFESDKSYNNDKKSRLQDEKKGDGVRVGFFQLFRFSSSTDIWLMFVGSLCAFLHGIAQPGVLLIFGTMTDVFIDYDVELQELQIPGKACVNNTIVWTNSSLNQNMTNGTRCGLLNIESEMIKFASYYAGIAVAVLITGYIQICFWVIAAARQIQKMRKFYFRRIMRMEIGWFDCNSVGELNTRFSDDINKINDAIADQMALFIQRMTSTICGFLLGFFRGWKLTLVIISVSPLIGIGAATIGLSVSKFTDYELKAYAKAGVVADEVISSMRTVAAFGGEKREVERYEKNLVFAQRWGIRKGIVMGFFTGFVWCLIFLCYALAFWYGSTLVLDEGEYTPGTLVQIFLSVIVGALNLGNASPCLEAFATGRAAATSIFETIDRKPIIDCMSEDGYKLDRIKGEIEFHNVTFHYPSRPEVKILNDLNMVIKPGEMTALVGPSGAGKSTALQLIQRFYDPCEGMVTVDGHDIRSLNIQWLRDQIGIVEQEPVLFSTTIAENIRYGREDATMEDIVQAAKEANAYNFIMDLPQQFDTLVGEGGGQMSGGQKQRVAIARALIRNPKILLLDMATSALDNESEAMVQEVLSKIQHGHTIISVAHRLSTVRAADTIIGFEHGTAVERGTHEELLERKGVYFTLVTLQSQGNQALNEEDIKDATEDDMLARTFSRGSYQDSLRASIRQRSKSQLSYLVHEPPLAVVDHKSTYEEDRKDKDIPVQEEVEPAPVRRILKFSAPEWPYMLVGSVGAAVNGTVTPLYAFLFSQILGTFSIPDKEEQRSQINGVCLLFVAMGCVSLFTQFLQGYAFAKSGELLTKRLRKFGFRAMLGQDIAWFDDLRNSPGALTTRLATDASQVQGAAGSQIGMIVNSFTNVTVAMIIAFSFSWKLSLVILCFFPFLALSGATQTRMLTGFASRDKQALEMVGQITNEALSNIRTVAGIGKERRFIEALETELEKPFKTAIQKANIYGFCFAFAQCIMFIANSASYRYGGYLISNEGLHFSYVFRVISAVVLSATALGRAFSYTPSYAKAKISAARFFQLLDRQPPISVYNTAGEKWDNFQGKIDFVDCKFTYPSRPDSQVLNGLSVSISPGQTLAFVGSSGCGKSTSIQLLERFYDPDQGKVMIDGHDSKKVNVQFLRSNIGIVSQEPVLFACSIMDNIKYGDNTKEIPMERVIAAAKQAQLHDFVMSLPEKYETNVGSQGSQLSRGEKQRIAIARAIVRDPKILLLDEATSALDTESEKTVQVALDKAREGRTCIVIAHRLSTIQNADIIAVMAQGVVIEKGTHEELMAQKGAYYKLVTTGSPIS

- Activity: inducer [+]
SMILES: CC(C)c1onc(-c2c(Cl)cccc2Cl)c1COc1ccc(/C=C/c2cccc(C(=O)O)c2)c(Cl)c1
